# Assay results published in patent publication US12655116B2, “Substituted isophthalic acid diamides” (Bayer Aktiengesellschaft, priority 2020, dated 2026).
# Key:
# [1] = test system: SETVI; test: Post-emergence herbicidal action against SETVI; type: in vivo, Setaria viridis; conditions: Setaria viridis, 504 h, dosage 20 g/ha
# Procedure, shortened: (§1)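 Weeds in sandy loam soil received a post-emergence spray at the one-leaf stage. Compounds were applied as WP or EC in water, 600 to 800 l/ha, with 0.2% wetting agent. Activity in % was judged visually after roughly 3 weeks against untreated plants.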
# [2] = test system: ALOMY; test: Post-emergence herbicidal action against ALOMY; type: in vivo, Alopecurus myosuroides; conditions: Alopecurus myosuroides, 504 h, dosage 20 g/ha, visual assessment about 3 weeks after treatment vs untreated controls
# Procedure, shortened: as §1
# [3] = test system: VIOTR; test: Pre-emergence herbicidal action against VIOTR; type: in vivo, Viola tricolor; conditions: Viola tricolor, 504 h
# Procedure, shortened: (§2)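 Visual rating at 3 weeks vs untreated pots; 0–100% scale, 100% = plants died. Treatment: aqueous WP/EC spray onto covering soil, 600–800 l/ha, 0.2% wetter, seeds in sandy loam.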
# [4] = test system: ECHCG; test: Post-emergence herbicidal action against ECHCG; type: in vivo, Echinochloa crus-galli; conditions: Echinochloa crus-galli, 504 h, dosage 20 g/ha
# Procedure, shortened: as §1
# [5] = test system: STEME; test: Pre-emergence herbicidal action against STEME; type: in vivo, Stellaria media; conditions: Stellaria media, 504 h
# Procedure, shortened: as §2
# [6] = test system: MATIN; test: Post-emergence herbicidal action against MATIN; type: in vivo, Matricaria inodora; conditions: Tripleurospermum inodorum, 504 h
# Procedure, shortened: as §1
# [7] = test system: AVEFA; test: Pre-emergence herbicidal action against AVEFA; type: in vivo, Avena fatua; conditions: Avena fatua, 504 h, pre-emergence
# Procedure, shortened: as §2
# [8] = test system: POLCO; test: Pre-emergence herbicidal action against POLCO; type: in vivo, Polygonum convolvulus; conditions: Fallopia convolvulus, 504 h, dosage 80 g/ha
# Procedure, shortened: as §2
# [9] = test system: VERPE; test: Post-emergence herbicidal action against VERPE; type: in vivo, Veronica persica; conditions: Veronica persica, 504 h, 20 g/ha
# Procedure, shortened: as §1
# [10] = test system: PHBPU; test: Post-emergence herbicidal action against PHBPU; type: in vivo, Pharbitis purpurea; conditions: Ipomoea purpurea, 504 h, dosage 20 g/ha
# Procedure, shortened: as §1
# [11] = test system: SETVI; test: Pre-emergence herbicidal action against SETVI; type: in vivo, Setaria viridis; conditions: Setaria viridis, 504 h
# Procedure, shortened: as §2
# [12] = test system: DIGSA; test: Post-emergence herbicidal action against DIGSA; type: in vivo, Digitaria sanguinalis; conditions: Digitaria sanguinalis, 504 h
# Procedure, shortened: as §1
# [13] = test system: ABUTH; test: Pre-emergence herbicidal action against ABUTH; type: in vivo, Abutilon theophrasti; conditions: Abutilon theophrasti, 504 h
# Procedure, shortened: as §2
# [14] = test system: HORMU; test: Post-emergence herbicidal action against HORMU; type: in vivo, Hordeum murinum; conditions: Hordeum murinum, 504 h, dosage 20 g/ha
# Procedure, shortened: as §1
# [15] = test system: ALOMY; test: Pre-emergence herbicidal action against ALOMY; type: in vivo, Alopecurus myosuroides; conditions: Alopecurus myosuroides, 504 h, pre-emergence
# Procedure, shortened: as §2
# [16] = test system: STEME; test: Post-emergence herbicidal action against STEME; type: in vivo, Stellaria media; conditions: Stellaria media, 504 h
# Procedure, shortened: as §1
# [17] = test system: ECHCG; test: Pre-emergence herbicidal action against ECHCG; type: in vivo, Echinochloa crus-galli; conditions: Echinochloa crus-galli, 504 h, 80 g/ha
# Procedure, shortened: as §2
# [18] = test system: DIGSA; test: Pre-emergence herbicidal action against DIGSA; type: in vivo, Digitaria sanguinalis; conditions: Digitaria sanguinalis, 504 h
# Procedure, shortened: as §2
# [19] = test system: HORMU; test: Pre-emergence herbicidal action against HORMU; type: in vivo, Hordeum murinum; conditions: Hordeum murinum, 504 h; 80 g/ha, pre-emergence
# Procedure, shortened: as §2
# [20] = test system: AVEFA; test: Post-emergence herbicidal action against AVEFA; type: in vivo, Avena fatua; conditions: Avena fatua, 504 h, 20 g/ha, visual assessment about 3 weeks after treatment, 100% = plants have died, 0% = like control plants
# Procedure, shortened: as §1
# [21] = test system: AMARE; test: Post-emergence herbicidal action against AMARE; type: in vivo, Amaranthus retroflexus; conditions: Amaranthus retroflexus, 504 h, 20 g/ha, visual assessment about 3 weeks after treatment, 100% = plants have died, 0% = like control plants
# Procedure, shortened: as §1
# [22] = test system: MATIN; test: Pre-emergence herbicidal action against MATIN; type: in vivo, Matricaria inodora; conditions: Tripleurospermum inodorum, 504 h
# Procedure, shortened: as §2
# [23] = test system: AMARE; test: Pre-emergence herbicidal action against AMARE; type: in vivo, Amaranthus retroflexus; conditions: Amaranthus retroflexus, 504 h, scored visually after 3 weeks vs untreated controls, 100% = plants have died, 0% = like control plants
# Procedure, shortened: as §2
# [24] = test system: ABUTH; test: Post-emergence herbicidal action against ABUTH; type: in vivo, Abutilon theophrasti; conditions: Abutilon theophrasti, 504 h, visual assessment about 3 weeks after treatment vs untreated controls
# Procedure, shortened: as §1
# [25] = test system: LOLRI; test: Pre-emergence herbicidal action against LOLRI; type: in vivo, Lolium rigidum; conditions: Lolium rigidum, 504 h, 80 g/ha
# Procedure, shortened: as §2
# [26] = test system: VIOTR; test: Post-emergence herbicidal action against VIOTR; type: in vivo, Viola tricolor; conditions: Viola tricolor, 504 h
# Procedure, shortened: as §1
# [27] = 20 g/ha, scored visually after 3 weeks, 100% = plants have died, 0% = like control plants
# [28] = 80 g/ha, scored visually after 3 weeks vs untreated controls (100% = plants have died, 0% = like control plants)
smiles,measurement,setting,value
Cn1nnnc1NC(=O)c1ccc(C(F)(F)F)c(C(=O)NC2CC2)c1Cl [Example 1-131],pest or weed control at 20 g/ha,[1],100%
same,pest or weed control at 20 g/ha,[2],90%
same,pest or weed control at 20 g/ha,[3]; dosage 20 g/ha,100%
same,pest or weed control at 80 g/ha,[3]; dosage 80 g/ha,100%
same,pest or weed control at 20 g/ha,[4],90%
same,pest or weed control at 20 g/ha,[5]; dosage 20 g/ha,100%
same,pest or weed control at 80 g/ha,[5]; dosage 80 g/ha,100%
same,pest or weed control at 5 g/ha,[6]; dosage 5 g/ha,90%
same,pest or weed control at 20 g/ha,[6]; dosage 20 g/ha,90%
same,pest or weed control at 80 g/ha,[7]; 80 g/ha,100%
same,pest or weed control at 20 g/ha,[7]; [27],80%
same,pest or weed control at 80 g/ha,[8],80%
same,pest or weed control at 20 g/ha,[9],90%
same,pest or weed control at 20 g/ha,[10],90%
same,pest or weed control at 20 g/ha,[11]; dosage 20 g/ha,80%
same,pest or weed control at 80 g/ha,[11]; dosage 80 g/ha,100%
same,pest or weed control at 5 g/ha,[12]; 5 g/ha,100%
same,pest or weed control at 20 g/ha,[12]; 20 g/ha,100%
same,pest or weed control at 80 g/ha,[13]; [28],100%
same,pest or weed control at 20 g/ha,"[13]; dosage 20 g/ha, scored visually after 3 weeks vs untreated controls, 100% = plants have died, 0% = like control plants, read-out: Pre-emergence action against ABUTH (herbicidal activity in percent)",100%
same,pest or weed control at 20 g/ha,[14],80%
same,pest or weed control at 80 g/ha,[15]; [28],100%
same,pest or weed control at 20 g/ha,[15]; [27],80%
same,pest or weed control at 20 g/ha,[16]; 20 g/ha,100%
same,pest or weed control at 5 g/ha,[16]; dosage 5 g/ha,80%
same,pest or weed control at 80 g/ha,[17],100%
same,pest or weed control at 20 g/ha,[18]; dosage 20 g/ha,100%
same,pest or weed control at 80 g/ha,[18]; dosage 80 g/ha,100%
same,pest or weed control at 80 g/ha,[19],80%
same,pest or weed control at 20 g/ha,[20],80%
same,pest or weed control at 20 g/ha,[21],100%
same,pest or weed control at 20 g/ha,[22]; dosage 20 g/ha,100%
same,pest or weed control at 80 g/ha,[22]; dosage 80 g/ha,100%
same,pest or weed control at 20 g/ha,[23]; 20 g/ha,100%
same,pest or weed control at 80 g/ha,[23]; 80 g/ha,100%
same,pest or weed control at 5 g/ha,[24]; dosage 5 g/ha,90%
same,pest or weed control at 20 g/ha,[24]; dosage 20 g/ha,90%
same,pest or weed control at 80 g/ha,[25],80%
same,pest or weed control at 5 g/ha,[26]; 5 g/ha,100%
same,pest or weed control at 20 g/ha,[26]; 20 g/ha,100%
